Experimental findings from patent US4855489A, “2-acyloxypropylamino derivatives, processes for the preparation thereof, and pharmaceutical compositions containing them” (Goedecke Aktiengesellschaft, priority 1986, dated 1989) are described below.

One test relates to T1, protein kinase C (PKC).
T1 construct: this enzyme activity was enriched, starting from a chicken gizzard extract; from tissue; host or cells: chicken gizzard
Kind of test: Inhibition of PS/DO-mediated protein kinase C activity (32P incorporation into histone H-1). Particulars: activity with PKC activators and without test substance = 100%; for inhibition at 100 µM: test substance 10^-4 mol/l; for inhibition at 10 µM: test substance 10^-5 mol/l; for inhibition at 1 µM: test substance 10^-6 mol/l. Type of test: biochemical, chicken. An excerpt: 1. Inhibition of the enzyme protein kinase C. For the elucidation of the inhibiting influence of the compounds according to the present invention of general formula (I) on the calcium- and phospholipid-dependent protein kinase (PKC), this enzyme activity was enriched, starting from a chicken gizzard extract. The two-step procedure according to purification steps described in the literature (J. Biol. Chem., 260, 15718-15722/1985) utilized the property of the enzyme of binding in the presence of calcium to cell membranes and again dissolving off by calcium chelators (EGTA). In the first purification step, there took place the binding of the PKC to membranes of the chicken gizzard extract and, in the second step, to the so-called inside out vesicles of erythrocytes. After dissolving from the erythrocyte membranes and rebuffering, the PKC preparation was present in 10 mM HEPES, 1 mM DTT and 0.1% PEG 20,000 (pH 7.5) and, under these conditions, it could be stored for several months at -70° C. without loss of activity. The activity of the enzyme was determined via the incorporation of phosphorus 32-labelled phosphate into the protein histon H-1, which is phosphorylatable by PKC. The test thereby contained the following components: 50 mM HEPES (pH 7.5), 1 mM DTT, 5 mM magnesium chloride, about 10 μM free calcium ions, 200 μg/ml histone, 5 μg/ml phosphatidylserine, 1 μg/ml 1,2-diolein, 10 μuM ATP, in each case an appropriate amount of PKC preparation and optionally a test substance. The kinase activity measured under standard conditions in the presence of PKC activators (and without test substance) was, in each case, taken as being 100% and the inhibitory action of the compounds of general formula (I) referred thereto as a percentage.

The subject of test [1] is gel-filtered human thrombocytes. The test is described as follows: Inhibition of OAG-induced platelet aggregation (aggregometer). Type of test: cell-based. Particulars: 3 min preincubation, OAG 5×10^-5 M, human platelets; for inhibition at 100 µM: test substance 10^-4 mol/l; for inhibition at 10 µM: test substance 10^-5 mol/l; for inhibition at 1 µM: test substance 10^-6 mol/l. The procedure:
2. Influence of the compound of Example 1 on platelet aggregation stimulated by oleoylacetylglycerol.
For carrying out the aggregation experiments, use was made of gel-filtered human thrombocytes. These were prepared in the following way: after centrifuging human blood for 15 minutes at 60 xg, the supernatant, i.e., the platelet-rich plasma, was used for the gel filtration. By means of the gel filtration through a column packed with Sepharose CL-2B, the platelets were transferred into a calcium-free, defined buffer medium (15 mM tris, 150 mM sodium chloride, 5.5 mM glucose, 0.2% bovine serum albumin; pH 7.4). Subsequently, the platelets were recalcified to a concentration of 7×10^-4 M calcium. The platelets were then incubated at 37° C. in an aggregometer and, after initiation of the aggregation by a stimulus, the decrease of the absorption was determined as a measure of the aggregation. As aggregation-initiating stimulus, there was used 1-oleoyl-2-acetylglycerol (OAG), an activator of the enzyme protein kinase C (J. Biol. Chem., 258, 6701-6704/1983) in a concentration of 5×10^-5 M. The aggregation achieved under these conditions was taken as being 100% control. The carrying out of the experiments on the influence of the compound of Example 1 on the OAG-stimulated aggregation took place in the following way: the platelets were first incubated for 3 minutes with the compound of Example 1 at the given concentration and subsequently the aggregation was initiated with OAG. The reduced extent of the aggregation was, in each case, calculated as a percentage of the 100% control. The results obtained are set out in Table 1 as well.

Where a name gives a salt, the structure may show the parent alone.

As for `CCCCCCCCCCCCCCCCCCOCC(CN(C)C)OC(C)=O` (racemic) [Example 1, (±)-3-Dimethylamino-1-octadecyloxy-2-propyl acetate hydrochloride], in the test on protein kinase C (PKC), 100 µM produced 86% inhibition, the inhibition at 10 µM was 61% and the inhibition at 1 µM amounted to 24%. Besides, in test [1], 100 µM produced 100% inhibition, testing at 10 µM gave an inhibition of 48% and the inhibition at 1 µM was 2%.
Regarding `CCCCCCCCCCCCCCCCCCOCC(CN1CCCCC1)OC(C)=O` (racemic) [Example 1.a, (±)-1-octadecyloxy-3-piperidino-2-propyl acetate hydrochloride], the inhibition at 100 µM in the test on protein kinase C (PKC) was found to be 25%; in test [1], 54%.
Compound `CCCCCCCCCCCCCCCCCCOCC(CN(Cc1ccccc1)Cc1ccccc1)OC(C)=O` (racemic) [Example 1.b, (±)-3-dibenzylamino-1-octadecyloxy-2-propyl acetate hydrochloride] registered an inhibition at 10 µM with protein kinase C (PKC) of 22%.
As for `CCCOCC(CN(C)C)OC(=O)CC` (racemic) [Example 1.c, (±)-3-dimethylamino-1-propoxy-2-propyl propionate oxalate], the inhibition at 100 µM with protein kinase C (PKC) was 9%.
Compound `CCCCCCCCCCCCCCOCC(CN(C)C)OC(C)=O` (racemic) [Example 1.e, (±)-3-dimethylamino-1-tetradecyloxy-2-propyl acetate hydrochloride] registered an inhibition at 10 µM in the test with protein kinase C (PKC) of 14%.
In the test with protein kinase C (PKC), `CCCCCCCCCCCCCCCCOCC(CN(C)C)OC(C)=O` (racemic) [Example 1.f, (±)-3-dimethylamino-1-hexadecyloxy-2-propyl acetate hydrochloride] came in with an inhibition at 10 µM of 27%.
`CCCCCCCCCCCCCCCCCCCCOCC(CN(C)C)OC(C)=O` (racemic) [Example 1.g, (±)-3-dimethylamino-1-eicosanyloxy-2-propyl acetate hydrochloride]: the inhibition at 10 µM with protein kinase C (PKC) was 39%; in test [1] it was 53%.
As for `CCCCCCCCCCCCCCC(C)OCC(CN(C)C)OC(C)=O` (racemic) [Example 1.l, (±)-3-dimethylamino-1-(2-hexadecyloxy)-2-propyl acetate hydrochloride], the inhibition at 10 µM in the test on protein kinase C (PKC) came out at 31%.
In the test on protein kinase C (PKC), `CCCCCCCC/C=C\CCCCCCCCOCC(CN(C)C)OC(C)=O` (racemic) [Example 1.m, (±)-3-dimethylamino-1-(9-cis-octadecenyloxy)-2-propyl acetate hydrochloride] showed an inhibition at 10 µM of 48% and an inhibition at 1 µM of 14%.
In the test with protein kinase C (PKC), `CCCCCCCCCCCCCCCCCCOCC(CN)OC(C)=O` (racemic) [Example 2, (±)-3-Amino-1-octadecyloxy-2-propyl acetate hydrochloride] returned an inhibition at 100 µM of 44% and an inhibition at 10 µM of 18%.
Regarding `CCCCCCCCCCCCCCCCCCOCC(CNC)OC(C)=O` (racemic) [Example 2.a, (±)-3-methylamino-1-octadecyloxy-2-propyl acetate hydrochloride], in the test on protein kinase C (PKC), testing at 10 µM gave an inhibition of 35% and the inhibition at 1 µM is 13%.
In the test on protein kinase C (PKC), `CCCCCCCCCCCCCCCCCCSCC(CN(C)C)OC(C)=O` (racemic) [Example 3, (±)-3-Dimethylamino-1-octadecylthio-2-propyl acetate hydrochloride] came in with an inhibition at 100 µM of 70% and an inhibition at 10 µM of 22%.
Regarding `CCCCCCCCCCCCCCCCCCOCC(CN1CCNCC1C)OC(C)=O` (stereo not shown) [Example 1.d, 1-(2-methyl)-piperazinyl-3-octadecyloxy-2-propyl acetate oxalate], in the test on protein kinase C (PKC), 10 µM produced 61% inhibition and the inhibition at 1 µM turned out to be 18%. Moreover, 3 µM produced 14% inhibition in test [1] (test substance 3 × 10^-6 mol/l). In test [1], this compound returned an inhibition at 10 µM of 100% and an inhibition at 1 µM of 0%.

One may read the inhibition as the relative decrease from the control value, in per cent. A high value points to a strong effect.
